Patent publication US9186406B2, “Compositions containing nucleosides and manganese and their uses” (The Henry M. Jackson Foundation for Advancement of Military …, priority 2007, dated 2015)

Assays:
restriction enzyme BamH1 = biological target: T1, restriction enzyme BamH1 (Bacillus amyloliquefaciens, UniProt P23940); type: biochemical; conditions: exposure to 17,500 Gy; 25 mM potassium phosphate buffer; 3 mM adenosine, 1 mM MnCl2
T1 sequence (P23940 1-213): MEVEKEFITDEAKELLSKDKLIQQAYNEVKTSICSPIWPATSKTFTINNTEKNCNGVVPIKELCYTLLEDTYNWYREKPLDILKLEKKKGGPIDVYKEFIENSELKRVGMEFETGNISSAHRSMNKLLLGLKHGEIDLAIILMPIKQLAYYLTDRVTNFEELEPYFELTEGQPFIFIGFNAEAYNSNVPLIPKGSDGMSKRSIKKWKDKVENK
Method: Post-irradiation functionality of restriction enzyme BamH1 after indicated treatment and incubation with 1-DNA.

hFOB cells = assay: apoptosis assay (Annexin V / PI flow cytometry) of hFOB cells 6 days after IR; type: cell-based, Human; conditions: for radioprotection of a mammalian cell line: agent alone; for Annexin V + / Annexin-V + PI / Live Cells / PI: hFOB cells 6 days after IR, adenosine 10 mM, MnCl2 0.25 mM, added 3 h before IR
Method: Apoptosis of Human Fetal Osteoblastic 1.19 cell line from ATCC (hFOB) was determined by death and apoptotic markers (Annexin V and propidium iodide PI) using a flow cytometry assay. In brief, hFOB cells were cultured in DMEM-F12 with 10% fetal bovine serum, 2.5 mM L-glutamine and 1% antibiotic to full confluency followed by treatment for experimental groups with adenosine (10 mM) or MnCl2 (0.25 mM) or adenosine and MnCl2 for 6 days period starting 3 h before IR. Apoptotic cell death was measured by flow cytometry with Annexin V and PI staining 6 days after IR. hFOB cells also were plated (1×10^3/well, 6-well plate) for clonogenic survival assay after IR. Colonies were counted 10 days later.
For the assays, adenosine+/−0.25 mM Mn(II) was added 3 hours prior to irradiation. Cells were assayed 6 days after irradiation by flow cytometry. Annexin-V conjugates allow for the identification of cell surface changes that occur early during the apoptotic process using flow cytometry. Early in the apoptotic process, phosphatidylserine becomes exposed on the cell surface. Propidium Iodide (PI) in un-fixed cells discriminates between apoptosis and necrosis on the basis of dye exclusion. While necrotic cells lose membrane integrity early on in their death throws, apoptotic cells may have compromised membranes.

[1] = tested on: Purified E. coli proteins; assay: protein carbonyl assay of purified E. coli proteins irradiated in vitro; type: biochemical; conditions: for prevention of ionizing radiation (IR)-induced protein oxidation (carbonylation) in vitro: purified E. coli proteins incubated with the agent during irradiation, Carbonyl Western blot
Method: Purified E. coli proteins were incubated in PP-, EC-, or DR-ultra-filtrated extract during irradiation, and subjected to a protein carbonyl assay.
Purified E. coli proteins were incubated with the indicated agents.

Row | SMILES | BamH1 functionality after irradiation (restriction enzyme BamH1) | radioprotection of a mammalian cell line (hFOB cells) | Annexin V + (hFOB cells; 0 Gy) [%] | Annexin-V + PI (hFOB cells; 0 Gy) [%] | Live Cells (hFOB cells; 0 Gy) [%] | PI (hFOB cells; 0 Gy) [%] | Annexin V + (hFOB cells; 8 Gy) [%] | Annexin-V + PI (hFOB cells; 8 Gy) [%] | Live Cells (hFOB cells; 8 Gy) [%] | PI (hFOB cells; 8 Gy) [%] | protection of proteins from oxidation during irradiation ([1]; potassium phosphate buffer (PPB/25 mM)+15 mM adenosine, compared to buffer alone) | prevention of ionizing radiation (IR)-induced protein oxidation (carbonylation) in vitro [1]
1 | Nc1ncnc2c1ncn2[C@@H]1O[C@H](CO)[C@@H](O)[C@H]1O [Adenosine, adenosine] | not | radioprotective | 2 | 1 | 85 | 13 | 3 | 2 | 85 | 10 | highly protected from oxidation | prevent ionizing radiation (IR)-induced protein oxidation in vitro
2 | [Cl][Mn][Cl] [Mn, MnCl2] | not | radioprotective | 0 | 0 | 86 | 14 | 21 | 2 | 70 | 7 |  | 
3 | O=c1ccn([C@@H]2O[C@H](CO)[C@@H](O)[C@H]2O)c(=O)[nH]1 [uridine] |  |  |  |  |  |  |  |  |  |  |  | prevent ionizing radiation (IR)-induced protein oxidation in vitro
